From patent US9533969B2, “Materials and method for inhibiting replication protein A and uses thereof” (Indiana University Research and Technology Corp., priority 2010, dated 2017)
Where “and” joins values, the source holds several entries; their conditions need not be identical. Equal values may be shown once.

What was measured:
H460 NSCLC cell line [1] = test: Annexin V/PI flow cytometry, induction of cell death; format: cell-based, human; conditions: H460 cells; for IC50: Homo sapiens, NCI-H460, 48 hour exposure, annexinV/PI staining, read-out: IC50 (μM) Cellular
Procedure: (§1) H460 cells were analyzed for apoptosis using an Annexin V-FITC/Propidium iodide (PI) Vybrant Apoptosis Assay Kit (Invitrogen), according to manufacturer's instructions. Cells were plated at a density of 1×10^4 cells per cm^2 and allowed to adhere for 24 hours and then treated with compound TDLR-505 for 48 hours. Following plating and treatment of H460 cells as described above, adherent and non-adherent cells were collected, processed, and analyzed on a BD FACScan flow cytometer. Data was analyzed using WinMDI software (http://facs.scripps.edu/software.html). Cell cycle analysis was performed by PI staining Briefly, cells were plated and treated with compound collected and then washed twice with PBS-EDTA supplemented with 1% BSA. Cells were fixed in 70% EtOH at −20° C. while vortexing followed by incubation on ice for 30 minutes. Cells were then collected and stained with PI solution (10 μg/mL PI and 25 μg/mL RNaseA in PBS-EDTA supplemented with 1% BSA). Cells were analyzed on a Becton Dickinson FACScan flow cytometer. Cells were gated and analyzed on a histogram with events plotted against the FL2-A parameter. Cell cycle distribution was analyzed using ModFit software. G2 arrest was induced by treatment with 0.8 μg/mL nocodazole for 12 hours (10). Cells were then washed with PBS and treated with either vehicle or compound TDLR-505 (100 μM). Cells were harvested and analyzed for cell cycle distribution as described above.
(§2) Referring now to TABLE 1, the in vitro IC50 was determined by EMSA analysis as described in FIG. 1A. The cellular IC50 value was determined by treating H460 cells with the indicated compounds and analyzing annexinV/PI staining as described in Methods. The in vitro and cellular data was analyzed using standard 4 parameter logistic-curve. The IC50 values and standard error of the fit were determined from this analysis.
Referring now to FIGS. 4A, 4B, 4C and 4D, the effects of compound TDRL-505 on induction of cell death and cell cycle progression in a H460 NSCLC cell line was measured. Briefly, H460 cells were treated with compound TDRL-505 for 48 hours and analyzed for cell viability via staining with AnnexinV/PI and presented as dot plots (see FIG. 3A). Referring now to FIG. 4B, the data from FIG. 4A was quantified and the percentage of Annexin-/PI-cells (lower left quadrant), indicating live cells, was calculated. The average±SD (N=4) are presented and the data was fit to a 4-parameter logistic curve.

Human RPA = Human RPA (Homo sapiens (Human), UniProt P27694); test: EMSA of inhibition of RPA binding to ssDNA; conditions: for IC50: 25 nM RPA, 34-base DNA, 4 parameter logistic fit, read-out: IC50 (μM) In vitro; for inhibition at 100 µM: read-out: inhibition at the highest concentration tested
Procedure: Small molecule inhibitors were obtained from ChemDiv and resuspended in DMSO. Compound TDLR-505 was independently synthesized and structure confirmed by mass spectrometry analysis. Human RPA was purified using an E. coli over expression system as previously described (7). EMSAs were performed in 20 μL reactions containing 25 nM RPA, 25 nM 5′[^32P]-labeled 34-base […] DNA as previously described (7). The final concentration of DMSO was 1%.
as §2
Referring now to FIGS. 2C, D and E, EMSA analysis of compound TDLR-505, briefly, increasing concentrations of compound TDRL-505 were pre-incubated with RPA and DNA binding activity was assessed via EMSA using a 34-base ssDNA substrate. Referring now to FIG. 2D, the average and standard deviation of each point are presented. The data was fit to a standard 4 parameter logistic curve with an N=4.

A549 NSCLC cell line = test: Cytotoxicity in A549 cells; format: cell-based; conditions: data not shown
H460 cells [2] = test: H460 NSCLC mouse xenograft model; format: in vivo, NOD/SCID mice; conditions: oral dosing
Source text: Mice that had been implanted with a human NSCLC tumor cells were subjected to a regime of oral dosing. The tumors were allowed to grow to 100 mm3 after which treatment with TDRL-505 or vehicle was commenced.

H460 cells [3] = test: Combination index analysis with cisplatin or etoposide; format: cell-based, human; conditions: 48 hours
Procedure: In addition to its essential role in DNA replication, RPA is required for the repair of bulky DNA adducts as well as DNA breaks induced by various types of exogenous and endogenous agents. […] In order to determine the effect of RPA inhibition on cellular sensitivity to cisplatin, the combination index (CI) (20) was measured. Referring now to FIG. 6. As illustrated in this experiment, compound TDLR-505 acts synergistically with both cisplatin and etoposide in H460 cells. H460 cells were treated with increasing fractions of the IC50 concentration of either cisplatin or etoposide with compound TDLR-505 for 48 hours. After treatment, cells were harvested and analyzed by annexin V/PI flow cytometry. Open circles indicate CI analysis of cisplatin with TDLR-505 and closed circles represent etoposide with TDLR-505. The combination index analysis was performed as previously described (20). The data are presented as the average±SD from (N=3). When cisplatin and compound TDLR-505 were used in combination, cell viability was decreased to a level that was greater than that induced by either agent alone, resulting in a synergy between the two compounds and CI of 0.4 at the highest fraction of cells affected. […] The ability of compound TDLR-505 to synergize with etoposide was also examined. Etoposide induces replication fork arrest and DNA damage response, both cellular processes that require RPA (21).

[4] = Pharmacokinetic analysis in mice; format: in vivo; conditions: for AUC(0-t) / Cmax / Tmax / half-life: mouse, serum
Procedure: Pharmacokinetic analysis. TDRL-505 was administered to mice at 200 mg/kg either ip or po and blood drawn at 1, 2, 4, 8, 24 and 48 hours post treatment. Serum concentration of TDRL-505 was measured using a HPLC MS/MS protocol and PK parameters analysis using on-compartmental analysis.
Based on the in vivo anticancer activity of TRL-505 a comparison of pharmacokinetic parameters with both ip and po dosing regimens was made. Naive mice were given a single dose and as described in Table 3, blood was drawn at various time intervals and TRDL-505 concentration determined via a HPCL/MSMS protocol developed for this compound.

RPA = test: Indirect immunofluorescence of RPA in H460 cells; format: cell-based, human; conditions: 50 μM, 3 hours
Procedure: H460 cells were plated on chamber slides (LabTek) as described above. Cells were then treated for 3 hours with either 50 μM of compound TDLR-505 or vehicle as indicated and following treatment, cells were fixed in 4% paraformaldehyde at 25° C. for 3 minutes followed by washing in 0.2% Triton X-100 for 2 minutes at 4° C. The slides were then blocked in 15% FBS in PBS for 1 hour at 25° C. and then incubated with anti-RPA 34 primary antibody (Neomarkers) at a dilution of 1:500 in 15% FBS for 1 hour. Slides were then washed 3×10 minutes with 15% FBS and then incubated with Alexa Fluor-594 goat-anti-mouse secondary antibody (Invitrogen) at a dilution of 1:300 for 1 hour. Slides were again washed and stained with 300 nM DAPI diluted in PBS-EDTA for five minutes. […] Slides were visualized and images analyzed and quantified using ImageJ software.
These cellular effects seen following treatment with compound TDLR-505 correlate with an inability of RPA to interact with DNA which could then result in numerous possibilities including degradation or redistribution of RPA within the cell. […] Referring now to FIG. 4C, H460 cells were treated with 50 μM compound TDLR-505 or vehicle for 3 hours and analyzed for RPA expression and localization by indirect immunofluorescence using an Alexa Fluor594 secondary antibody (red). […] RPA expression was assessed via western blot analysis probing for the p34 subunit. […]

H460 NSCLC cell line [5] = test: Crystal violet staining cell viability assay; format: cell-based; conditions: Homo sapiens, NCI-H460; data not shown
NOD/SCID mice = conditions: mouse, in vivo
Procedure: Mice were monitored for signs of overt toxicity and bodyweights measured three times per week. Mice were sacrificed and gross necroscopy performed to assess organ weights and inspected for signs of toxicity. […] NOD/SCID mice were then implanted with 5×10^6 H460 cells in 0.2 ml of 50% Matrigel subcutaneously. Tumors were allowed to develop for 7 days and TDRL-505 was administered via oral gavage 2× per week for one week. Tumor volumes were calculated by measuring the width and the length of the tumors and using these measurements in the equation: vol.=1×w^2/2.
Referring now to Table 3. […] Oral dosing in 0.1% Tween 80/methylcellulose was also well tolerated up to 800 mg/kg.

H460 NSCLC cells = test: Cell cycle distribution by PI flow cytometry; format: cell-based, human
Procedure: as §1, with “Cells were then collected and stained with PI solution (10 μg/mL PI and 25 μg/mL RNaseA in PBS-EDTA supplemented with 1% BSA).” left out, “G2 arrest was induced by treatment with 0.8 μg/mL nocodazole for 12 hours (10). Cells were then washed with PBS and treated with either vehicle or compound TDLR-505 (100 μM).” left out
Referring now to FIG. 5A. H460 NSCLC cells were treated with 0 and 75 μM of compound TDLR-505 for 48 hours and then analyzed for cell cycle distribution using flow cytometry. […] Cells were then harvested and analyzed for cell cycle distribution using flow cytometry. […]

RPA p34 = test: Western blot of RPA p34 in H460 cells; format: cell-based, human; conditions: 100 μM, 6 hours, without or with 25 μM etoposide
Procedure: H460 cells were plated and treated with either vehicle or 100 μM compound TDLR-505 in the presence or absence of 25 μM etoposide for 6 hours and then processed for western blot analysis using a RIPA lysis and extraction procedure. RPA was detected with an anti-RPA p34 antibody (Neomarkers) and goat anti-mouse-HRP secondary (Santa Cruz). Bands were visualized using chemiluminescence detection.
These cellular effects seen following treatment with compound TDLR-505 correlate with an inability of RPA to interact with DNA which could then result in numerous possibilities including degradation or redistribution of RPA within the cell. Indirect immunofluorescence was used to assess how inhibition of RPA binding influences cellular localization. Referring now to FIG. 4C, H460 cells were treated with 50 μM compound TDLR-505 or vehicle for 3 hours and analyzed for RPA expression and localization by indirect immunofluorescence using an Alexa Fluor594 secondary antibody (red). Slides were counter stained with DAPI (blue) and images merged. Magnification of the boxed cells is presented below the low magnification images. […] (FIG. 4C). […] Referring now to FIG. 4D, H460 cells were treated with vehicle or 100 μM compound TDLR-505 without or with etoposide (25 μM) as indicated in the figure. RPA expression was assessed via western blot analysis probing for the p34 subunit. […]

[6] = tested on: peripheral blood mononuclear cells (PBMCs); test: Cytotoxicity in freshly isolated PBMCs; format: cell-based; conditions: non-cancerous cells, data not shown
[7] = 200 mg/Kg PO, Methylcellulose/DMSO

Chain of Human RPA (P27694 whole entry): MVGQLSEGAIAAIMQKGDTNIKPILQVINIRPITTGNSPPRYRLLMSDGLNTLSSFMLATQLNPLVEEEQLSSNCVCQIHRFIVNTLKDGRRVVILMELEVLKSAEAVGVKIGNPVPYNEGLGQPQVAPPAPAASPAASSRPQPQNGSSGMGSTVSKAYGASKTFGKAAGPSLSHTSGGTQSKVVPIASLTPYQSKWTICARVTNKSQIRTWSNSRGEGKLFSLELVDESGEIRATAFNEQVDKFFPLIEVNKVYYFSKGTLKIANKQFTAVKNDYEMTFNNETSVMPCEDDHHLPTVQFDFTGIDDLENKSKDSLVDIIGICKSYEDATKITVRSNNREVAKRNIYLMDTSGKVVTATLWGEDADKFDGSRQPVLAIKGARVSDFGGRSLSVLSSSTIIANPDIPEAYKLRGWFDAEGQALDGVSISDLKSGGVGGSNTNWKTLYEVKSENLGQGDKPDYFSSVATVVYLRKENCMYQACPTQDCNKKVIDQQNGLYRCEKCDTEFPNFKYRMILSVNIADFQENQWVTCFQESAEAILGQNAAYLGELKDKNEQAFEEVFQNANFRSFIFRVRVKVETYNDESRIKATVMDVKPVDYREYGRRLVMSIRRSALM
Chain of Human RPA (P15927 whole entry partner): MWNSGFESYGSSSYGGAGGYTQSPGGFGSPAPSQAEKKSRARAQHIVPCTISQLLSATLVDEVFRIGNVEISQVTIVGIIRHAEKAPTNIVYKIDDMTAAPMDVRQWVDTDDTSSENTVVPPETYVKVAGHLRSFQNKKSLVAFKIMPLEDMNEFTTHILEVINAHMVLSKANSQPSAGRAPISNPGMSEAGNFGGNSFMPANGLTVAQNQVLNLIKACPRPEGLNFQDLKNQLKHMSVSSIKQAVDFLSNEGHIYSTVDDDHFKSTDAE
Chain of Human RPA (P35244 whole entry partner): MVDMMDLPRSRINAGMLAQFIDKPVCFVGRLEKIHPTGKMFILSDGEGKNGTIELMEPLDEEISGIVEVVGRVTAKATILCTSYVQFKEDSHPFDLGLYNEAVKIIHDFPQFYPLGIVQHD

COc1ccc(C2=NN(C(=O)CCC(=O)O)C(c3cn(-c4ccccc4)nc3-c3ccc(C)cc3)C2)cc1 (stereo not drawn) [TDRL-521]
IC50 (H460 NSCLC cell line [1]): 56.9 ± 6.7 µM
IC50 (Human RPA): 71.7 ± 33.9 µM

COc1ccc(-c2nn(-c3ccccc3)cc2C2CC(c3ccc(Br)cc3)=NN2C(=O)CCC(=O)O)cc1 (stereo not drawn) [TDRL-523]
cellular activity (in words) (H460 NSCLC cell line [1]): modest cellular activity
IC50 (H460 NSCLC cell line [1]): 31 ± 5.2 µM
IC50 (Human RPA): > 100 µM
inhibition at 100 µM (Human RPA): 36%
inhibition of RPA DNA binding (in words) (Human RPA; full length RPA heterotrimer): minimal inhibition

Cc1ccc(-c2nn(-c3ccccc3)cc2C2CC(c3ccc(Br)cc3)=NN2C(=O)CCC(=O)O)cc1 (stereo not drawn) [TDRL-522]
IC50 (H460 NSCLC cell line [1]): 38 ± 32 µM
IC50 (Human RPA): 56.1 ± 6.7 µM

Cc1ccc(C2=NN(C(=O)CCC(=O)O)C(c3cn(-c4ccccc4)nc3-c3ccc(C)cc3)C2)cc1 (stereo not drawn) [TDRL-520]
IC50 (H460 NSCLC cell line [1]): 49.9 ± 2.5 µM
IC50 (Human RPA): 20.3 ± 10.7 µM

CCN(CC)c1ccc(C2CC(c3ccc(Br)cc3)=NN2C(=O)CCC(=O)O)cc1 (stereo not drawn) [TDRL-518]
IC50 (Human RPA): > 100 µM
inhibition at 100 µM (Human RPA): 9%

CCOc1ccc2cc(C3CC(c4ccc(Br)cc4)=NN3C(=O)CCC(=O)O)c(Cl)nc2c1 (stereo not drawn) [TDRL-505]
cytotoxic effect in A549 cells (in words) (A549 NSCLC cell line): A similar result
tumor growth in individual mice vs vehicle (in words) (H460 cells [2]; FIG. 7B): significant reduction in tumor growth
tumor growth vs vehicle control (in words) (H460 cells [2]; group mean, FIG. 7A): reduction in tumor growth
IC50 (H460 NSCLC cell line [1]): 30.8 ± 1.7 µM
interaction with cisplatin at lower fractions of cells affected (in words) (H460 cells [3]; CI values greater than one): additive and then antagonistic
interaction with etoposide (in words) (H460 cells [3]; all fractions of cells affected): synergistic activity
combination index (CI) with cisplatin (H460 cells [3]; highest fraction of cells affected): 0.4
Cl/F ([4]; 200 mg/Kg IP, Tween80/DMSO): 8.29 mL/h
Vdss ([4]; 200 mg/Kg IP, Tween80/DMSO): 0.11 L
Cl/F [4, 7]: 202.33 mL/h
Vdss [4, 7]: 0.88 L
AUC(0-t) ([4]; 200 mg/Kg IP, Tween80/DMSO): 577 µg·h/mL
Cmax ([4]; 200 mg/Kg IP, Tween80/DMSO): 31700 ng/mL
Tmax ([4]; 200 mg/Kg IP, Tween80/DMSO): 8 h
half-life ([4]; 200 mg/Kg IP, Tween80/DMSO): 7.13 h
AUC(0-t) [4, 7]: 25 µg·h/mL
Cmax [4, 7]: 6400 ng/mL
Tmax [4, 7]: 1 h
half-life [4, 7]: 2.62 h
IC50 (Human RPA): 13 µM and 12.9 µM
intensity of RPA staining vs vehicle (in words) (RPA): decrease in the intensity of RPA staining
cells with RPA staining intensity >70% of the maximum (RPA; vehicle 23%): 15%
IC50 (H460 NSCLC cell line [5]): 64 µM
well tolerated dose, IP (NOD/SCID mice; ip): up to 400 mg/kg
well tolerated dose, oral (NOD/SCID mice; po): up to 800 mg/kg
cell cycle distribution, asynchronous culture (in words) (H460 NSCLC cells; 75 μM, 48 hours): increase in the proportion of cells in G1-phase
cell cycle progression after release from nocodazole G2 arrest (in words) (H460 NSCLC cells; 100 μM, 4, 8 and 12 hours): did not enter S-phase even 12 hours post release
RPA expression (p34 western blot, in words) (RPA p34): not degraded or reduced in expression
cytotoxic activity in PBMCs (in words) [6]: minimal cytotoxic activity
